In ChEMBL document CHEMBL5335843, “Application of tobramycin benzyl ether as an antibiotic adjuvant capable of sensitizing multidrug-resistant Gram-negative bacteria to rifampicin” (2024):
Converted amounts (≈) assume the structure as drawn. The source made the active and inactive calls. No cut-off for these calls is given here. Positions of bridges follow the written chain, without caps; N, C: chain ends. Non-standard residues stand in square brackets, D forms with d. Residues, ends and D or L forms follow the SMILES beside them. *: point of attachment. X1 = CC[C@H](C)CCCCC(=O)*; dDab = NCC[C@@H](N)C(=O)O; Dab = NCC[C@H](N)C(=O)O

Key:
Format in all cases: functional
[1] = system: Escherichia coli; assay: Antibacterial activity against multi-drug resistant Escherichia coli clinical isolate EC94474 assessed as inhibition of bacterial growth incubated for 18 hrs by two fold broth microdilution assay
[2] = system: Escherichia coli; assay: Antibacterial activity against multi-drug resistant Escherichia coli clinical isolate EC107115 assessed as inhibition of bacterial growth incubated for 18 hrs by two fold broth microdilution assay
[3] = system: Pseudomonas aeruginosa; assay: Antibacterial activity against multi-drug resistant Pseudomonas aeruginosa clinical isolate PA101243 assessed as inhibition of bacterial growth incubated for 18 hrs by two fold broth microdilution assay
[4] = system: Pseudomonas aeruginosa; assay: Antibacterial activity against multi-drug resistant Pseudomonas aeruginosa clinical isolate PA262 assessed as inhibition of bacterial growth incubated for 18 hrs by two fold broth microdilution assay
[5] = system: Pseudomonas aeruginosa; assay: Antibacterial activity against multi-drug resistant Pseudomonas aeruginosa clinical isolate PA259 assessed as inhibition of bacterial growth incubated for 18 hrs by two fold broth microdilution assay
[6] = system: Pseudomonas aeruginosa; assay: Antibacterial activity against multi-drug resistant Pseudomonas aeruginosa clinical isolate PA114228 assessed as inhibition of bacterial growth incubated for 18 hrs by two fold broth microdilution assay
[7] = system: Pseudomonas aeruginosa; assay: Antibacterial activity against multi-drug resistant Pseudomonas aeruginosa clinical isolate PA264 assessed as inhibition of bacterial growth incubated for 18 hrs by two fold broth microdilution assay
[8] = system: Escherichia coli; assay: Antibacterial activity against Escherichia coli ATCC 25922 assessed as inhibition of bacterial growth incubated for 18 hrs by two fold broth microdilution assay
[9] = system: Acinetobacter baumannii; assay: Antibacterial activity against Acinetobacter baumannii ATCC 17978 assessed as inhibition of bacterial growth incubated for 18 hrs by two fold broth microdilution assay
[10] = system: Pseudomonas aeruginosa; assay: Antibacterial activity against Pseudomonas aeruginosa PAO1 assessed as inhibition of bacterial growth incubated for 18 hrs by two fold broth microdilution assay
[11] = system: Acinetobacter baumannii; assay: Antibiotic adjuvant activity against Acinetobacter baumannii ATCC 17978 assessed as rifampicin MIC incubated for 18 hrs in presence of Rifampicin by two fold broth microdilution checkerboard assay
[12] = system: Escherichia coli; assay: Antibiotic adjuvant activity against Escherichia coli ATCC 25922 assessed as rifampicin MIC incubated for 18 hrs in presence of Rifampicin by two fold broth microdilution checkerboard assay
[13] = system: Acinetobacter baumannii; assay: Antibiotic adjuvant activity against Acinetobacter baumannii ATCC 17978 assessed as fold potentiation incubated for 18 hrs in presence of Rifampicin by two fold broth microdilution checkerboard assay
[14] = system: Pseudomonas aeruginosa; assay: Antibiotic adjuvant activity against Pseudomonas aeruginosa PAO1 assessed as fold potentiation incubated for 18 hrs in presence of Rifampicin by two fold broth microdilution checkerboard assay
[15] = system: Escherichia coli; assay: Antibiotic adjuvant activity against Escherichia coli ATCC 25922 assessed as fold potentiation incubated for 18 hrs in presence of Rifampicin by two fold broth microdilution checkerboard assay
[16] = system: Staphylococcus aureus; assay: Antibacterial activity against methicilin-resistant Staphylococcus aureus assessed as inhibition of bacterial growth incubated for 18 hrs by two fold broth microdilution assay
[17] = system: Enterococcus faecium; assay: Antibacterial activity against Enterococcus faecium 128149 assessed as inhibition of bacterial growth incubated for 18 hrs by two fold broth microdilution assay
[18] = system: Enterococcus faecium; assay: Antibacterial activity against Enterococcus faecium 114278 assessed as inhibition of bacterial growth incubated for 18 hrs by two fold broth microdilution assay
[19] = system: Escherichia coli; assay: Antibacterial activity against multi-drug resistant Escherichia coli clinical isolate 107115 assessed as inhibition of bacterial growth incubated for 18 hrs by two fold broth microdilution assay
[20] = system: Acinetobacter baumannii; assay: Antibacterial activity against multi-drug resistant Acinetobacter baumannii clinical isolate LAC-4 assessed as inhibition of bacterial growth incubated for 18 hrs by two fold broth microdilution assay
[21] = system: Escherichia coli; assay: Antibacterial activity against multi-drug resistant Escherichia coli clinical isolate 94393 assessed as inhibition of bacterial growth incubated for 18 hrs by two fold broth microdilution assay
[22] = system: Pseudomonas aeruginosa; assay: Antibacterial activity against multi-drug resistant Pseudomonas aeruginosa clinical isolate 114228 assessed as inhibition of bacterial growth incubated for 18 hrs by two fold broth microdilution assay
[23] = system: Acinetobacter baumannii; assay: Antibacterial activity against multi-drug resistant Acinetobacter baumannii clinical isolate 110193 assessed as inhibition of bacterial growth incubated for 18 hrs by two fold broth microdilution assay
[24] = system: Acinetobacter baumannii; assay: Antibacterial activity against multi-drug resistant Acinetobacter baumannii clinical isolate AB031 assessed as inhibition of bacterial growth incubated for 18 hrs by two fold broth microdilution assay
[25] = system: Acinetobacter baumannii; assay: Antibacterial activity against multi-drug resistant Acinetobacter baumannii clinical isolate AB027 assessed as inhibition of bacterial growth incubated for 18 hrs by two fold broth microdilution assay
[26] = system: Escherichia coli; assay: Antibacterial activity against multi-drug resistant Escherichia coli clinical isolate 94474 assessed as inhibition of bacterial growth incubated for 18 hrs by two fold broth microdilution assay
[27] = system: Pseudomonas aeruginosa; assay: Antibacterial activity against multi-drug resistant Pseudomonas aeruginosa clinical isolate 101243 assessed as inhibition of bacterial growth incubated for 18 hrs by two fold broth microdilution assay
[28] = system: Acinetobacter baumannii; assay: Antibacterial activity against multi-drug resistant Acinetobacter baumannii clinical isolate 92247 assessed as inhibition of bacterial growth incubated for 18 hrs by two fold broth microdilution assay
[29] = system: Staphylococcus aureus; assay: Antibiotic adjuvant activity against methicilin-resistant Staphylococcus aureus assessed as inhibition of bacterial growth incubated for 18 hrs in presence of rifampicin by two fold broth microdilution checkerboard assay
[30] = system: Enterococcus faecium; assay: Antibiotic adjuvant activity against Enterococcus faecium 114278 assessed as inhibition of bacterial growth incubated for 18 hrs in presence of rifampicin by two fold broth microdilution checkerboard assay
[31] = system: Enterococcus faecium; assay: Antibiotic adjuvant activity against Enterococcus faecium 128149 assessed as inhibition of bacterial growth incubated for 18 hrs in presence of rifampicin by two fold broth microdilution checkerboard assay

Molecule	MIC [8]	MIC [9]	MIC [10]	MIC [11]	fold change (FC) [13]	fold change (FC) [14]	further results
CN(C)c1ccc(O)c2c1C[C@H]1C[C@H]3[C@H](N(C)C)C(O)=C(C(N)=O)C(=O)[C@@]3(O)C(O)=C1C2=O [MINOCYCLINE]							MIC [1]: 64 µg/mL (≈ 140 µM); MIC [2]: 32 µg/mL (≈ 69.9 µM); MIC [3]: 64 µg/mL (≈ 140 µM); MIC [4]: 256 µg/mL (≈ 560 µM); MIC [5]: 128 µg/mL (≈ 280 µM); MIC [6]: 128 µg/mL (≈ 280 µM); MIC [7]: 32 µg/mL (≈ 69.9 µM)
Cl.NC[C@H]1O[C@H](O[C@H]2[C@H](OCc3ccc(Cl)cc3)[C@@H](O[C@H]3O[C@H](COCc4ccc(Cl)cc4)[C@@H](OCc4ccc(Cl)cc4)[C@H](N)[C@H]3OCc3ccc(Cl)cc3)[C@H](N)C[C@@H]2N)[C@H](N)C[C@@H]1OCc1ccc(Cl)cc1	> 128 µg/mL	> 128 µg/mL	> 128 µg/mL				
CC(C)CCO[C@@H]1[C@@H](OCCC(C)C)[C@H](N)C[C@H](N)[C@H]1O[C@H]1O[C@H](CN)[C@@H](OCCC(C)C)C[C@H]1N.Cl	> 128 µg/mL	> 128 µg/mL	> 128 µg/mL	0.5 µg/mL	4	4	MIC [12]: 0.0156 µg/mL; fold change (FC) [15]: 512
NC[C@H]1O[C@H](O[C@H]2[C@H](O)[C@@H](O[C@H]3O[C@H](CO)[C@@H](O)[C@H](N)[C@H]3O)[C@H](N)C[C@@H]2N)[C@H](N)C[C@@H]1O [TOBRAMYCIN]	2 µg/mL (≈ 4.28 µM)	0.5 µg/mL (≈ 1.07 µM)	1 µg/mL (≈ 2.14 µM)				
CC(C)(C)c1ccc(COC[C@H]2O[C@H](O[C@@H]3[C@@H](OCc4ccc(C(C)(C)C)cc4)[C@H](O[C@H]4O[C@H](CN)[C@@H](OCc5ccc(C(C)(C)C)cc5)C[C@H]4N)[C@@H](N)C[C@H]3N)[C@H](OCc3ccc(C(C)(C)C)cc3)[C@@H](N)[C@@H]2OCc2ccc(C(C)(C)C)cc2)cc1.Cl	> 128 µg/mL	> 128 µg/mL	> 128 µg/mL				
CC[C@H](C)CCCCC(=O)N[C@@H](CCN)C(=O)N[C@H](C(=O)N[C@@H](CCN)C(=O)N[C@H]1CCNC(=O)[C@H]([C@@H](C)O)NC(=O)[C@H](CCN)NC(=O)[C@H](CCN)NC(=O)[C@H](CC(C)C)NC(=O)[C@@H](Cc2ccccc2)NC(=O)[C@H](CCN)NC1=O)[C@@H](C)O (X1-[Dab]T[Dab][Dab][Dab][dF]L[Dab][Dab]T; lactam 4-C)							MIC [16]: > 128 µg/mL; MIC [17]: > 128 µg/mL; MIC [18]: > 128 µg/mL
NC[C@H]1O[C@H](O[C@H]2[C@H](OC(=O)Nc3ccccc3)[C@@H](O[C@H]3O[C@H](COC(=O)Nc4ccccc4)[C@@H](OC(=O)Nc4ccccc4)[C@H](N)[C@H]3OC(=O)Nc3ccccc3)[C@H](N)C[C@@H]2N)[C@H](N)C[C@@H]1OC(=O)Nc1ccccc1.O=C(O)C(F)(F)F	32 µg/mL	> 128 µg/mL	64 µg/mL	0.0312 µg/mL	16	1	MIC [12]: 0.008 µg/mL
Cl.NC[C@H]1O[C@H](O[C@H]2[C@H](OCc3cc(Cl)cc(Cl)c3)[C@@H](O[C@H]3O[C@H](COCc4cc(Cl)cc(Cl)c4)[C@@H](OCc4cc(Cl)cc(Cl)c4)[C@H](N)[C@H]3OCc3cc(Cl)cc(Cl)c3)[C@H](N)C[C@@H]2N)[C@H](N)C[C@@H]1OCc1cc(Cl)cc(Cl)c1	> 128 µg/mL	> 128 µg/mL	> 128 µg/mL				
Cl.NC[C@H]1O[C@H](O[C@H]2[C@H](OCc3ccc(-c4ccccc4)cc3)[C@@H](O[C@H]3O[C@H](COCc4ccc(-c5ccccc5)cc4)[C@@H](OCc4ccc(-c5ccccc5)cc4)[C@H](N)[C@H]3OCc3ccc(-c4ccccc4)cc3)[C@H](N)C[C@@H]2N)[C@H](N)C[C@@H]1OCc1ccc(-c2ccccc2)cc1	> 128 µg/mL	> 128 µg/mL	> 128 µg/mL				
COLISTIN	0.5 µg/mL	0.5 µg/mL	1 µg/mL				
CO[C@H]1/C=C/O[C@@]2(C)Oc3c(C)c(O)c4c(O)c(c(/C=N/N5CCN(C)CC5)c(O)c4c3C2=O)NC(=O)/C(C)=C\C=C\[C@H](C)[C@H](O)[C@@H](C)[C@@H](O)[C@@H](C)[C@H](OC(C)=O)[C@@H]1C [RIFAMPIN]							MIC [19]: 128 µg/mL (≈ 156 µM); MIC [20]: 2 µg/mL (≈ 2.43 µM); MIC [16]: 256 µg/mL (≈ 311 µM); MIC [21]: 32 µg/mL (≈ 38.9 µM); MIC [22]: 16 µg/mL (≈ 19.4 µM); MIC [23]: 4 µg/mL (≈ 4.86 µM); MIC [24]: 2 µg/mL (≈ 2.43 µM); MIC [25]: 8 µg/mL (≈ 9.72 µM); MIC [4]: 512 µg/mL (≈ 622 µM); MIC [17]: 8 µg/mL (≈ 9.72 µM); MIC [26]: 8 µg/mL (≈ 9.72 µM); MIC [5]: 16 µg/mL (≈ 19.4 µM); MIC [18]: 4 µg/mL (≈ 4.86 µM); MIC [27]: 4 µg/mL (≈ 4.86 µM); MIC [28]: 4 µg/mL (≈ 4.86 µM); MIC [7]: 16 µg/mL (≈ 19.4 µM)
Cl.NC[C@H]1O[C@H](O[C@H]2[C@H](OCc3ccccc3)[C@@H](OCc3ccccc3)[C@H](N)C[C@@H]2N)[C@H](N)C[C@@H]1OCc1ccccc1	> 128 µg/mL	> 128 µg/mL	> 128 µg/mL	1 µg/mL	4	4	MIC [12]: 0.0312 µg/mL; fold change (FC) [15]: 512
CC[C@H](C)CCCCC(=O)N[C@@H](CCN)C(=O)N[C@H](C(=O)N[C@@H](CCN)C(=O)N[C@H]1CCNC(=O)[C@H]([C@@H](C)O)NC(=O)[C@H](CCN)NC(=O)[C@H](CCN)NC(=O)[C@H](CC(C)C)NC(=O)[C@@H](Cc2ccccc2)NC(=O)[C@@H](CCN)NC1=O)[C@@H](C)O (X1-[Dab]T[Dab][Dab][dDab][dF]L[Dab][Dab]T; lactam 4-C)							Activity [29]: Active; Activity [30]: Active; Activity [31]: Active
C[C@H]1c2cccc(O)c2C(=O)C2=C(O)[C@]3(O)C(=O)C(C(N)=O)=C(O)[C@@H](N(C)C)[C@@H]3[C@@H](O)[C@@H]21.O [DOXYCYCLINE]							MIC [1]: 64 µg/mL; MIC [2]: 128 µg/mL; MIC [3]: > 128 µg/mL; MIC [4]: 512 µg/mL; MIC [5]: 256 µg/mL; MIC [6]: > 128 µg/mL; MIC [7]: 64 µg/mL
NC[C@H]1O[C@H](O[C@H]2[C@H](OC(=O)Nc3ccc(Cl)cc3)[C@@H](O[C@H]3O[C@H](COC(=O)Nc4ccc(Cl)cc4)[C@@H](OC(=O)Nc4ccc(Cl)cc4)[C@H](N)[C@H]3OC(=O)Nc3ccc(Cl)cc3)[C@H](N)C[C@@H]2N)[C@H](N)C[C@@H]1OC(=O)Nc1ccc(Cl)cc1.O=C(O)C(F)(F)F	32 µg/mL	32 µg/mL	64 µg/mL	0.004 µg/mL	16	1	MIC [12]: 0.5 µg/mL
CC(C)CCOC[C@H]1O[C@H](O[C@@H]2[C@@H](OCCC(C)C)[C@H](O[C@H]3O[C@H](CN)[C@@H](OCCC(C)C)C[C@H]3N)[C@@H](N)C[C@H]2N)[C@H](OCCC(C)C)[C@@H](N)[C@@H]1OCCC(C)C.Cl	4 µg/mL	16 µg/mL	16 µg/mL	0.004 µg/mL	2048	16	
